Test results from publication PMC9723630 (2022).
One block for each molecule: values may come before it.

How the values were obtained:
[1] = system: QD3-sbl (DNA, G4) TTAGGTGGGTAGGGTGGGCTAGTCATTTTGACTAGG; experiment: ITC; conditions: K+ (20 mM potassium phosphate, 100 mM KCl; 120 mM K+), pH 7.0, 5% DMSO, 40 °C
[2] = system: Q3-sbl (DNA, G4) TTAGGGTGGTAGGGTGGGGAAGG; experiment: ITC; conditions: K+ (20 mM potassium phosphate, 100 mM KCl; 120 mM K+), pH 7.0, 5% DMSO, 40 °C
[3] = system: D3-HP (DNA, hairpin) CTAGTCATTTTGACTAG; experiment: ITC; conditions: K+ (20 mM potassium phosphate, 100 mM KCl; 120 mM K+), pH 7.0, 5% DMSO, 40 °C
[4] = system: QD2-l (DNA, G4) GGTTGGCGCGAAGCATTCGCGGGTTGG; experiment: CD melting at 295 nm; conditions: K+ (10 mM potassium phosphate), pH 7.0, 5 µM DNA, 1:1 ligand (5 µM), free Tm 50.3 °C
[5] = system: QD2-l-2bp (DNA, G4) GGTTGGCGGCACGGGTTGG; experiment: ITC; conditions: K+ (20 mM potassium phosphate, 100 mM KCl; 120 mM K+); pH 7.0, 5% DMSO, 40 °C; site 1 of 2
[6] = system: TBA (DNA, G4) GGTTGGTGTGGTTGG; experiment: ITC; conditions: K+ (20 mM potassium phosphate, 100 mM KCl; 120 mM K+); pH 7.0, 5% DMSO, 40 °C
[7] = system: D2-HP (DNA, hairpin) CGCGAAGCATTCGCG; experiment: ITC; conditions: K+ (20 mM potassium phosphate, 100 mM KCl; 120 mM K+); pH 7.0, 5% DMSO, 40 °C
[8] = system: QD2-l (DNA, G4) GGTTGGCGCGAAGCATTCGCGGGTTGG; experiment: ITC; conditions: K+ (20 mM potassium phosphate, 100 mM KCl; 120 mM K+), pH 7.0, 5% DMSO, 40 °C, site 1 of 2
[9] = system: Q3-sbl2 (DNA, G4) TTAGGTGGGTAGGGTGGGTGTG; experiment: NMR titration; conditions: K+ (10 mM potassium phosphate); pH 7.0, 30 °C, 0.75 mM DNA; stacks on 5'-tetrad
[10] = system: QD3-sbl (DNA, G4) TTAGGTGGGTAGGGTGGGCTAGTCATTTTGACTAGG; experiment: NMR titration and solution structure; conditions: K+ (10 mM potassium phosphate for structure; 120 mM K+ for titration); pH 7.0, 30 °C titration; intercalation at quadruplex-duplex junction, slow exchange

Compound: CN(C)CCN1C(=O)c2ccc3c4c(ccc(c24)C1=O)C(=O)N(CCN(C)C)C3=O
Ka ([1]; authors: competing sites may not be separated): 120000 ± 25000 M⁻¹
Ka [2]: 95000 ± 11000 M⁻¹
Ka [3]: 72000 ± 23000 M⁻¹

Compound: CN1C(=Cc2cc[n+](C)c3ccccc23)Sc2ccccc21
Ka ([1]; site 1 of 2): 1.1e+06 ± 27000 M⁻¹
Ka [2]: 170000 ± 67000 M⁻¹
Ka [3]: 41000 ± 2700 M⁻¹

Compound: CN(C)CCCNc1c2ccccc2nc2c1[nH]c1ccccc12
Ka ([1]; site 1 of 2): 1.1e+07 ± 3.3e+06 M⁻¹
Tm increase [4]: ~ 5 °C
Ka ([2]; site 1 of 2): 2.1e+06 ± 610000 M⁻¹
Ka ([3]; site 1 of 2): 1.3e+06 ± 120000 M⁻¹

Compound: Cc1cccc2c1[nH]c1c(-c3ccc(C(=O)NCCCN(C)CCCN)cc3)c3cccc(C)c3[n+](C)c12
Ka [8]: 7.9e+06 ± 900000 M⁻¹

Compound: C[n+]1cc(NC(=O)c2ccc3ccc4ccc(C(=O)Nc5cc6ccccc6[n+](C)c5)nc4c3n2)cc2ccccc21
Tm increase ([4]; complex 74 °C): ~ 24 °C
binding [9]: yes
binding [10]: yes

Other lines, results leading:

Ka ([1]; site 1 of 2): 1.3e+07 ± 2.9e+06 M⁻¹
Tm increase [4]: ~ 13 °C
Ka [5]: 7.1e+06 ± 77000 M⁻¹
Ka [6]: 26000 ± 8600 M⁻¹
Ka ([2]; site 1 of 2): 3.2e+06 ± 1.4e+06 M⁻¹
Ka [7]: 45000 ± 14000 M⁻¹
Ka ([8]; Table S13 prints error 1.4×10^6): 8.3e+06 ± 120000 M⁻¹
Ka [3]: 16000 ± 2200 M⁻¹
Compound: CCN(CC)CCCNC(=O)c1ccc(-c2c3cccc(C)c3[n+](C)c3c2[nH]c2c(C)cccc23)cc1

Ka ([1]; site 1 of 2, authors: competing sites may not be separated): 1.4e+07 ± 6.1e+06 M⁻¹
Ka ([2]; site 1 of 2): 3e+07 ± 2.3e+06 M⁻¹
Ka ([3]; site 1 of 2): 2.9e+06 ± 690000 M⁻¹
Compound: CN(C)c1ccc(Nc2c3ccc(NC(=O)CCN4CCCC4)cc3nc3cc(NC(=O)CCN4CCCC4)ccc23)cc1

Ka [8]: 2.6e+06 ± 700000 M⁻¹
Compound: CCOCCCNC(=O)c1ccc(-c2c3cccc(C)c3[n+](C)c3c2[nH]c2c(C)cccc23)cc1
